Test results as given in US8859466B2, “Oxaspirocyclic spiro-substituted tetramic acid and tetronic acid derivatives” (Bayer CropScience AG, priority 2007, dated 2014).
Blank lines part the entries; values can stand above or below the compound they belong to.

Key:
Summer wheat = test: Herbicidal post-emergence action with use of safeners, container trials with cereal in a greenhouse; assay type: in vivo; conditions: 28 days after application
Description: (§1) 1. Herbicidal Post-Emergence Action • Seeds of monocotyledonous and dicotyledonous weed and crop plants are placed in sandy loam in wood fibre pots or in plastic pots, covered with soil and cultivated in a greenhouse, during the vegetation period also outdoors outside of the greenhouse, under good growth conditions. 2 to 3 weeks after sowing, the test plants are treated at one- to three-leaf stage. The test compounds, formulated as wettable powders (WP) or liquid (EC) are, at a water application rate of 300 l/ha (converted), with wetting agent (0.2 to 0.3%) added, sprayed at various dosages onto the plants and the surface of the soil. 3 to 4 weeks after treatment of the test plants, the effect of the preparations is rated visually in comparison to untreated controls (herbicidal activity in percent: 100% activity=the plants have died, 0% activity=like control plants).
(§2) Use of Safeners: • If it is additionally to be tested as to whether safeners can improve the plant compatibility of test substances in the case of crop plants, the following options are used for applying the safeners: • seeds of the crop plants are, before sowing, dressed with the safener substance (the amount of safener stated in percent, based on the weight of the seed) • before application of the test substances, the crop plants are sprayed with the safener at a certain application rate per hectare (usually 1 day before the application of the test substances) • the safener is applied together with the test substance as a tank mix (the amount of safener stated in g/ha or as a ratio, based on the herbicide). • Container trials with cereal in a greenhouse • mefenpyr 1 day prior to herbicide application

[1] = tested on: green peach aphid (Myzus persicaei); test: Myzus persicae test (MYZUPE) with ammonium salts and/or penetrants; assay type: in vivo; conditions: for % efficacy after 6 days +AMS: +AMS (ammonium sulphate) 1000 ppm; for % efficacy after 6 days +RME: +RME (rapeseed oil methyl ester) 1000 ppm; for % efficacy after 6 days +RME + AMS: each 1000 ppm
Description: Myzus persicae Test (MYZUPE)
Solvent: 7 parts by weight of dimethylformamide
(§3) Emulsifier: 2 parts by weight of alkylaryl polyglycol ether
(§4) To produce a suitable preparation of active compound, 1 part by weight of active compound is mixed with the stated amounts of solvents and emulsifier, and the concentrate is diluted with emulsifier-containing water to the desired concentration. For the required application of ammonium salts, penetrants or ammonium salts and penetrants, these are in each case added with a pipette after dilution of the respective finished solution of the preparation at a concentration of 1000 ppm.
Paprika plants (Capsicum annuum) which are heavily infested by the green peach aphid (Myzus persicaei) are treated by being sprayed with the preparation of active compound of the desired concentration.
After the desired period of time, the kill in % is determined. 100% means that all animals have been killed; 0% means that none of the animals have been killed.

cereal = test: Herbicidal post-emergence action with use of safeners, container trials with cereal in a greenhouse (other cereal crop plants); assay type: in vivo; conditions: 10 days after application
Description: as §1, §2

[2] = Determination of the logP values by HPLC on a reverse-phase column (C 18); assay type: physicochemical
Description: Determination of the logP Values
The logP values given in the table were determined in accordance with EEC Directive 79/831 Annex V.A8 by HPLC (high performance liquid chromatography) on a reverse-phase column (C 18). Temperature: 55° C.
Mobile phases for the determination in the acidic range (pH 3.4):
Mobile phase A: acetonitrile+1 ml of formic acid/liter. Mobile phase B: water+0.9 ml of formic acid/liter.
Gradient: from 10% mobile phase A/90% mobile phase B to 95% mobile phase A/5% mobile phase B over 4.25 min.
Calibration was carried out using unbranched alkan-2-ones (having 3 to 16 carbon atoms) with known logP values (determination of the logP values by the retention times using linear interpolation between two successive alkanones). The lambda max values were determined in the maxima of the chromatographic signals using the UV spectra from 200 nm to 400 nm.

[3] = tested on: cotton aphid (Aphis gossypii); test: Aphis gossypii test (APHIGO) with ammonium salts and/or penetrants; assay type: in vivo; conditions: for % efficacy after 6 days +AMS: +AMS (ammonium sulphate) 1000 ppm; for % efficacy after 6 days +RME: +RME (rapeseed oil methyl ester) 1000 ppm; for % efficacy after 6 days +RME + AMS: each 1000 ppm
Description: Aphis gossypii Test (APHIGO)
Solvents: 7 parts by weight of dimethylformamide
as §3, §4
Cotton leaves (Gossypium hirsutum) which are heavily infested by the cotton aphid (Aphis gossypii) are sprayed with an active compound preparation of the desired concentration.
After the desired period of time, the kill in % is determined. 100% means that all aphids have been killed; 0% means that none of the aphids have been killed.

[4] = HPLC on a reverse-phase column (C 18), separated α/β isomers

SMILES: CCc1cc(Cl)cc(OC)c1C1=C(O)C2(CCC3(CCCO3)CC2)NC1=O (mixture of isomers) [Example I-1-a-11]
Summer wheat observed (%) (Summer wheat; 12.5 g of a.i./ha): 65%
Summer wheat observed (%) (Summer wheat; 25 g of a.i./ha): 70%
Summer wheat observed (%) (Summer wheat; 50 g of a.i./ha): 80%
Summer wheat observed (%) (Summer wheat; 100 g of a.i./ha): 95%

SMILES: Cc1cc(Br)cc(C)c1C1=C(O)C2(CCC3(CCCO3)CC2)NC1=O (mixture of isomers) [Example I-1-a-8]
% efficacy after 6 days +AMS ([1]; 0.8 ppm): 0%
% efficacy after 6 days +RME ([1]; 0.8 ppm): 20%
% efficacy after 6 days +RME + AMS ([1]; 0.8 ppm): 99%
% efficacy after 6 days without additive ([1]; 0.8 ppm): 0%
% efficacy after 6 days +AMS ([1]; 4 ppm): 98%
% efficacy after 6 days +RME ([1]; 4 ppm): 99%
% efficacy after 6 days +RME + AMS ([1]; 4 ppm): 100%
% efficacy after 6 days without additive ([1]; 4 ppm): 45%

SMILES: COc1cc(C)cc(Cl)c1C1=C(O)C2(CCC3(CCCO3)CC2)NC1=O (mixture of isomers) [Example I-1-a-13]
Summer barley observed (%) (cereal; 12.5 g of a.i./ha): 20%
Summer barley observed (%) (cereal; 25 g of a.i./ha): 20%
Summer barley observed (%) (cereal; 50 g of a.i./ha): 30%

SMILES: O=C1OC2(CCC3(CCCO3)CC2)C(O)=C1c1cc(-c2ccc(Cl)cc2)ccc1Cl (centres unmarked) [Example I-2-a-20]
log P* [2, 4]: 3.25

SMILES: O=C1OC2(CCC3(CCCO3)CC2)C(O)=C1c1cc(-c2ccc(Cl)cc2)ccc1Cl (centres unmarked) [Example I-2-a-21]
log P* [2, 4]: 3.79

SMILES: Cc1cc(C)c(-c2ccc(Cl)cc2)c(C)c1C1=C(O)C2(CCC3(CCCO3)CC2)OC1=O (single isomer, unassigned) [Example I-2-a-42]
log P* [2, 4]: 3.79

SMILES: COc1cccc(C)c1C1=C(OC(=O)C(C)C)C2(CCC3(CCCO3)CC2)OC1=O (centres unmarked) [Example I-2-b-20]
log P* ([2]; compounds of formula (I-2-b)): 4.25

SMILES: Cc1cc(C)c(-c2ccc(Cl)cc2)cc1C1=C(OC(=O)C(C)C)C2(CCC3(CCCO3)CC2)OC1=O (centres unmarked) [Example I-2-b-3]
log P* ([2]; compounds of formula (I-2-b)): 5.64

SMILES: O=C1OC2(CCC3(CCCO3)CC2)C(O)=C1c1cc(-c2ccc(F)cc2)ccc1Cl (centres unmarked) [Example I-2-a-51]
log P* [2, 4]: 3.42

SMILES: CCc1cc(Br)cc(C)c1C1=C(O)C2(CCC3(CCCO3)CC2)OC1=O (single isomer, unassigned) [Example I-2-a-6]
log P* [2, 4]: 3.44

SMILES: O=C1OC2(CCC3(CCCO3)CC2)C(O)=C1c1cc(-c2ccc(F)cc2)ccc1Cl (centres unmarked) [Example I-2-a-50]
log P* [2, 4]: 2.91

SMILES: Cc1cc(C)c(-c2ccc(Cl)cc2)cc1C1=C(O)C2(CCC3(CCCO3)CC2)OC1=O (centres unmarked) [Example I-2-a-27]
log P* [2, 4]: 3.60

SMILES: Cc1cc(Cl)cc(C)c1C1=C(O)C2(CCC3(CCCO3)CC2)NC1=O (mixture of isomers) [Example I-1-a-6]
% efficacy after 6 days +AMS ([3]; 20 ppm): 5%
% efficacy after 6 days +RME ([3]; 20 ppm): 60%
% efficacy after 6 days +RME + AMS ([3]; 20 ppm): 95%
% efficacy after 6 days without additive ([3]; 20 ppm): 35%

SMILES: Cc1ccc(-c2ccc(Cl)cc2)c(C)c1C1=C(OC(=O)C(C)(C)C)C2(CCC3(CCCO3)CC2)OC1=O (centres unmarked) [Example I-2-b-16]
log P* ([2]; compounds of formula (I-2-b)): 6.09

SMILES: Cc1cc(C)c(C2=C(O)C3(CCC4(CCCO4)CC3)NC2=O)c(C)c1 (mixture of isomers) [Example I-1-a-4]
% efficacy after 6 days +AMS ([1]; 0.8 ppm): 0%
% efficacy after 6 days +RME ([1]; 0.8 ppm): 60%
% efficacy after 6 days +RME + AMS ([1]; 0.8 ppm): 99%
% efficacy after 6 days without additive ([1]; 0.8 ppm): 10%
% efficacy after 6 days +AMS ([1]; 4 ppm): 80%
% efficacy after 6 days +RME ([1]; 4 ppm): 90%
% efficacy after 6 days +RME + AMS ([1]; 4 ppm): 98%
% efficacy after 6 days without additive ([1]; 4 ppm): 75%
% efficacy after 6 days +AMS ([3]; 0.8 ppm): 0%
% efficacy after 6 days +RME ([3]; 0.8 ppm): 15%
% efficacy after 6 days +RME + AMS ([3]; 0.8 ppm): 45%
% efficacy after 6 days without additive ([3]; 0.8 ppm): 10%
% efficacy after 6 days +AMS ([3]; 4 ppm): 75%
% efficacy after 6 days +RME ([3]; 4 ppm): 75%
% efficacy after 6 days +RME + AMS ([3]; 4 ppm): 80%
% efficacy after 6 days without additive ([3]; 4 ppm): 60%

More lines, now with the values ahead:

log P* [2, 4]: 2.42
SMILES: COc1cccc(C)c1C1=C(O)C2(CCC3(CCCO3)CC2)OC1=O (single isomer, unassigned) [Example I-2-a-35]

log P* [2, 4]: 3.32
SMILES: Cc1ccc(-c2ccc(Cl)cc2)cc1C1=C(O)C2(CCC3(CCCO3)CC2)OC1=O (centres unmarked) [Example I-2-a-24]

log P* [2, 4]: 2.29
SMILES: Cc1ccc(C)c(C2=C(O)C3(CCC4(CCCO4)CC3)OC2=O)c1 (single isomer, unassigned) [Example I-2-a-3]

log P* [2, 4]: 2.54
SMILES: Cc1cc(C)c(C2=C(O)C3(CCC4(CCCO4)CC3)OC2=O)cc1C (single isomer, unassigned) [Example I-2-a-49]

log P* [2, 4]: 3.14
SMILES: Cc1cc(C2=C(O)C3(CCC4(CCCO4)CC3)OC2=O)c(Cl)cc1Cl (single isomer, unassigned) [Example I-2-a-41]

log P* [2, 4]: 2.77
SMILES: Cc1cc(C2=C(O)C3(CCC4(CCCO4)CC3)OC2=O)c(C)cc1Br (single isomer, unassigned) [Example I-2-a-31]

log P* [2, 4]: 2.66
SMILES: COc1cc(C)cc(C)c1C1=C(O)C2(CCC3(CCCO3)CC2)OC1=O (single isomer, unassigned) [Example I-2-a-11]

log P* [2, 4]: 2.73
SMILES: Cc1ccc(C)c(C2=C(O)C3(CCC4(CCCO4)CC3)OC2=O)c1 (single isomer, unassigned) [Example I-2-a-2]
